How the values were obtained:
[1] = tested on: cleaved form of PARP in AMO-1 tumour cells; test: Quantification of the cleaved form of PARP in vivo (AMO-1 xenograft, MSD ELISA); parameters: species or system mice (SCID strain); details: activation factor: cleaved PARP in treated mice / control mice, SCID mice, intraveinous or oral routes
Method: The ability of the compounds of the invention to induce apoptosis, by measuring cleaved PARP levels, is evaluated in a xenograft model of AMO-1 multiple myeloma cells. 1·10^7 AMO-1 cells are grafted sub-cutaneously into immunosuppressed mice (SCID strain). 12 to 14 days after the graft, the animals are treated by intraveinous or oral routes with the various compounds. After treatment, the tumour masses are recovered and lysed, and the cleaved form of PARP is quantified in the tumour lysates.
The quantification is carried out using the “Meso Scale Discovery (MSD) ELISA platform” test, which specifically assays the cleaved form of PARP. It is expressed in the form of an activation factor corresponding to the ratio between the quantity of cleaved PARP in the treated mice divided by the quantity of cleaved PARP in the control mice.

Mcl-1 protein = Mcl-1 protein (Homo sapiens, UniProt Q07820); test: Inhibition of Mcl-1 by the fluorescence polarisation technique (Method 1 or Method 2); format: binding; details: for IC50: fluorescence polarisation, Fluorescein labelled ligand, Method 1 (not underlined) or Method 2 (underlined), read-out: IC50 (μM) Mcl-1 FP
Chain of Mcl-1 protein (Q07820 whole entry): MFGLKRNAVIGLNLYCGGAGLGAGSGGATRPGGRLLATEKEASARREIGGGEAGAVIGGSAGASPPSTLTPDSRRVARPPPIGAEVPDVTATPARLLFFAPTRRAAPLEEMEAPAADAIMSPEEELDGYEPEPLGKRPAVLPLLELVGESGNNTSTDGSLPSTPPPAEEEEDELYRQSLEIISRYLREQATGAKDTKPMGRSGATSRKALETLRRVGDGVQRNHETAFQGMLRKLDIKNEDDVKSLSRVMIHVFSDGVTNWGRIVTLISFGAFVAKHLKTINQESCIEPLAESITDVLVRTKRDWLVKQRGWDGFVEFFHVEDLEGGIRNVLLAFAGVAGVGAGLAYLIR
Procedure, shortened: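 Binding measured by FP, with Mcl-1 protein and fluorescein-labelled ligand mixed with compounds in an 11-point series at 5% final DMSO. Method 2 used 10 nM each of protein and ligand in phosphate buffer (20 mM Na2HPO4, 1 mM EDTA, 50 mM NaCl, pH 7.4); Method 1 used 5 nM protein, 1 nM ligand in HEPES buffer (10 mM HEPES, 150 mM NaCl, 0.05% Tween 20, pH 7.4).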

[2] = tested on: H929 multiple myeloma tumour line; test: In vitro cytotoxicity, MTT assay, 48 hours; format: cell-based; details: H929 cells, 48 hours exposure, cell viability
Method: The cytotoxicity studies were carried out on the H929 multiple myeloma tumour line.
The cells are distributed onto microplates and exposed to the test compounds for 48 hours.

Structure (SMILES) | PARP fold [1] | IC50 (Mcl-1 protein) | IC50 ([2]; Homo sapiens, NCI-H929) | percentage fluorescence polarisation inhibition, Mcl-1 FP (Mcl-1 protein; partial inhibitors, @ 1 μM test compound) | IC50 [2]
CC#Cc1sc2ncnc(NC(Cc3ccccc3OCc3ccnc(OCC(F)(F)F)n3)C(=O)O)c2c1-c1ccc(OCCN2CCN(C)CC2)c(Cl)c1C [Example 44, N-[(5Sa)-5-{3-chloro-2-methyl-4-[2-(4-methylpiperazin-1-yl)ethoxy]phenyl}-6-(prop-1-yn-1-yl)thieno[2,3-d]pyrimidin-4-yl]-2-{[2-(2,2,2-trifluoroethoxy)pyrimidin-4-yl]methoxy}-D-phenylalanine] | 85.8 | 0.007 µM | 3.44 nM | – | –
CC#Cc1sc2ncnc(NC(Cc3ccccc3OCc3ccnc(-c4ccccc4OC)n3)C(=O)OCC)c2c1-c1ccc(OCCN2CCN(C)CC2)c(Cl)c1C [Example 258, ethyl N-[(5Sa)-5-{3-chloro-2-methyl-4-[2-(4-methylpiperazin-1-yl)ethoxy]phenyl}-6-(prop-1-yn-1-yl)thieno[2,3-d]pyrimidin-4-yl]-2-{[2-(2-methoxyphenyl)pyrimidin-4-yl]methoxy}-D-phenylalaninate] | 132.3 | 1.07 µM | 428 nM | – | –
CC#Cc1sc2ncnc(NC(Cc3ccccc3OCc3ccnc(-c4ccccc4OC)n3)C(=O)OCC)c2c1-c1ccc(OCCN(C)C)c(Cl)c1C [Example 259, ethyl N-[(5Sa)-5-{3-chloro-4-[2-(dimethylamino)ethoxy]-2-methylphenyl}-6-(prop-1-yn-1-yl)thieno[2,3-d]pyrimidin-4-yl]-2-{[2-(2-methoxyphenyl)pyrimidin-4-yl]methoxy}-D-phenylalaninate] | 134.4 | 1.35 µM | > 600 nM | – | –
COCCOc1ccccc1-c1nccc(COc2ccccc2CC(Nc2ncnc3sc(-c4ccc(F)cc4)c(-c4ccc(OCCN(C)C)c(Cl)c4C)c23)C(=O)O)n1 [Example 51, N-[(5Sa)-5-{3-chloro-4-[2-(dimethylamino)ethoxy]-2-methylphenyl}-6-(4-fluorophenyl)thieno[2,3-d]pyrimidin-4-yl]-2-({2-[2-(2-methoxyethoxy)phenyl]pyrimidin-4-yl}methoxy)-D-phenylalanine] | 52.2 | 0.005 µM | 23.3 nM | – | –
CC#Cc1sc2ncnc(NC(Cc3ccccc3OCc3ccnn3C(C)(C)C)C(=O)O)c2c1-c1ccc(OCCN2CCN(C)CC2)c(Cl)c1C [Example 40, 2-[(1-tert-butyl-1H-pyrazol-5-yl)methoxy]-N-[(5Sa)-5-{3-chloro-2-methyl-4-[2-(4-methylpiperazin-1-yl)ethoxy]phenyl}-6-(prop-1-yn-1-yl)thieno[2,3-d]pyrimidin-4-yl]-D-phenylalanine] | 114.3 | 0.006 µM | 32.8 nM | – | –
CC#Cc1sc2ncnc(NC(Cc3ccccc3OCc3ccnc(N4CCOCC4)n3)C(=O)O)c2c1-c1ccc(OCCN2CCN(C)CC2)c(Cl)c1C [Example 43, N-[(5Sa)-5-{3-chloro-2-methyl-4-[2-(4-methylpiperazin-1-yl)ethoxy]phenyl}-6-(prop-1-yn-1-yl)thieno[2,3-d]pyrimidin-4-yl]-2-{[2-(morpholin-4-yl)pyrimidin-4-yl]methoxy}-D-phenylalanine] | 114.6 | 0.006 µM | 12.5 nM | – | –
CCOC(=O)C(Cc1ccccc1OCc1ccnc(-c2ccccc2OC)n1)Nc1ncnc2sc(-c3ccc(F)cc3)c(-c3ccc(OCCN4CCN(C)CC4)c(Cl)c3C)c12 [Example 256, ethyl N-[(5Sa)-5-{3-chloro-2-methyl-4-[2-(4-methylpiperazin-1-yl)ethoxy]phenyl}-6-(4-fluorophenyl)thieno[2,3-d]pyrimidin-4-yl]-2-{[2-(2-methoxyphenyl)pyrimidin-4-yl]methoxy}-D-phenylalaninate] | 99.5 | 1.61 µM | > 600 nM | – | –
CCOc1nccc(COc2ccccc2CC(Nc2ncnc3sc(-c4ccc(F)o4)c(-c4ccc(OCCN5CCN(C)CC5)c(Cl)c4C)c23)C(=O)O)n1 [Example 22, N-[(5Sa)-5-{3-chloro-2-methyl-4-[2-(4-methylpiperazin-1-yl)ethoxy]phenyl}-6-(5-fluorofuran-2-yl)thieno[2,3-d]pyrimidin-4-yl]-2-[(2-ethoxypyrimidin-4-yl)methoxy]-D-phenylalanine] | 222.2 | 0.002 µM | 8.59 nM | – | –
CCn1nccc1COc1ccccc1CC(Nc1ncnc2sc(-c3ccc(F)o3)c(-c3ccc(OCCN4CCN(C)CC4)c(Cl)c3C)c12)C(=O)O [Example 21, N-[(5Sa)-5-{3-chloro-2-methyl-4-[2-(4-methylpiperazin-1-yl)ethoxy]phenyl}-6-(5-fluorofuran-2-yl)thieno[2,3-d]pyrimidin-4-yl]-2-[(1-ethyl-1H-pyrazol-5-yl)methoxy]-D-phenylalanine] | – | 0.006 µM | 39.7 nM | – | –
Cc1c(-c2c(-c3ccc(F)o3)sc3ncnc(NC(Cc4ccccc4O)C(=O)O)c23)ccc(OCCN2CCN(C)CC2)c1Cl [Example 14, N-[(5Sa)-5-{3-chloro-2-methyl-4-[2-(4-methylpiperazin-1-yl)ethoxy]phenyl}-6-(5-fluorofuran-2-yl)thieno[2,3-d]pyrimidin-4-yl]-2-hydroxy-D-phenylalanine] | – | 0.038 µM | 721 nM | – | –
CC#Cc1sc2ncnc(NC(Cc3ccccc3OCc3ccnc(CCOC)n3)C(=O)O)c2c1-c1ccc(OCCN2CCN(C)CC2)c(Cl)c1C [Example 41, N-[(5Sa)-5-{3-chloro-2-methyl-4-[2-(4-methylpiperazin-1-yl)ethoxy]phenyl}-6-(prop-1-yn-1-yl)thieno[2,3-d]pyrimidin-4-yl]-2-{[2-(2-methoxyethyl)pyrimidin-4-yl]methoxy}-D-phenylalanine] | – | 0.006 µM | 7.38 nM | – | –
Cc1c(-c2c(-c3ccsc3)sc3ncnc(NC(Cc4ccccn4)C(=O)O)c23)ccc(OCCN2CCN(C)CC2)c1Cl [Example 29, N-[(5Sa)-5-{3-chloro-2-methyl-4-[2-(4-methylpiperazin-1-yl)ethoxy]phenyl}-6-(thiophen-3-yl)thieno[2,3-d]pyrimidin-4-yl]-3-pyridin-2-yl-D-alanine] | – | 0.063 µM | 2520 nM | – | –
Cc1c(-c2c(-c3ccc(F)cc3)sc3ncnc(NC(Cc4ccccc4OCc4ccnn4C)C(=O)O)c23)ccc(OCCN2CCN(C)CC2)c1Cl [Example 3, N-[(5Sa)-5-{3-chloro-2-methyl-4-[2-(4-methylpiperazin-1-yl)ethoxy]phenyl}-6-(4-fluorophenyl)thieno[2,3-d]pyrimidin-4-yl]-2-[(1-methyl-1H-pyrazol-5-yl)methoxy]-D-phenylalanine] | – | 0.114 µM | 318 nM | – | –
CCCCn1nccc1COc1ccccc1C[C@@H](Nc1ncnc2sc(-c3ccc(F)o3)c(-c3ccc(OCCN4CCN(C)CC4)c(Cl)c3C)c12)C(=O)O [Example 23, 2-[(1-butyl-1H-pyrazol-5-yl)methoxy]-N-[(5Ra)-5-{3-chloro-2-methyl-4-[2-(4-methylpiperazin-1-yl)ethoxy]phenyl}-6-(5-fluorofuran-2-yl)thieno[2,3-d]pyrimidin-4-yl]-D-phenylalanine] | – | – | – | 41.27% @ 1 μM | > 600 nM
Cc1c(-c2c(-c3ccsc3)sc3ncnc(NC(CC4CCCCC4)C(=O)O)c23)ccc(OCCN2CCN(C)CC2)c1Cl [Example 32, N-[(5Sa)-5-{3-chloro-2-methyl-4-[2-(4-methylpiperazin-1-yl)ethoxy]phenyl}-6-(thiophen-3-yl)thieno[2,3-d]pyrimidin-4-yl]-3-cyclohexyl-D-alanine] | – | 0.007 µM | > 3750 nM | – | –
COc1ccccc1CC(Nc1ncnc2sc(-c3ccc(F)o3)c(-c3ccc(OCCN4CCN(C)CC4)c(Cl)c3C)c12)C(=O)O [Example 16, N-[(5Sa)-5-{3-chloro-2-methyl-4-[2-(4-methylpiperazin-1-yl)ethoxy]phenyl}-6-(5-fluorofuran-2-yl)thieno[2,3-d]pyrimidin-4-yl]-2-methoxy-D-phenylalanine] | – | 0.006 µM | 99.3 nM | – | –
CC#Cc1sc2ncnc(N[C@H](Cc3ccccc3OCc3ccnc(-c4ccccc4OC)n3)C(=O)O)c2c1-c1ccc(OCCN(C)C)c(Cl)c1C [Example 49, N-[(5Sa)-5-{3-chloro-4-[2-(dimethylamino)ethoxy]-2-methylphenyl}-6-(prop-1-yn-1-yl)thieno[2,3-d]pyrimidin-4-yl]-2-{[2-(2-methoxyphenyl)pyrimidin-4-yl]methoxy}-D-phenylalanine] | 138.8 | 0.003 µM | – | – | 4.12 nM
